Source: ChEMBL document CHEMBL3885881, “DrugMatrix”

Organism: Rattus norvegicus
Assay: DrugMatrix - Regimen: Daily Repeat
Type: toxicity, organism-based, Sprague-Dawley
Parameters: regimen Daily Repeat, gender Male, age 6-8 weeks
Conditions: in vivo, po, route oral GAVAGE, […]; for ABSOLUTE BASOPHIL / ABSOLUTE EOSINOPHIL / ABSOLUTE LYMPHOCYTE / ABSOLUTE MONOCYTE / ABSOLUTE SEGMENTED NEUTROPHIL / BASOPHIL / EOSINOPHIL / ERYTHROCYTE COUNT / HEMATOCRIT / HEMOGLOBIN / LEUKOCYTE COUNT / LYMPHOCYTE / MEAN CORPUSCULAR HEMOGLOBIN / MEAN CORPUSCULAR HEMOGLOBIN CONCENTRATION / MEAN CORPUSCULAR VOLUME / MONOCYTE / NEUTROPHIL / NUCLEATED RED BLOOD CELLS / PLATELET COUNT: tissue Blood; for ALANINE AMINOTRANSFERASE / ALBUMIN / ALKALINE PHOSPHATASE / ASPARTATE AMINOTRANSFERASE / BLOOD UREA NITROGEN / CARBON DIOXIDE / CHLORIDE / CHOLESTEROL / CREATINE PHOSPHOKINASE / CREATININE / GLUCOSE / LACTATE DEHYDROGENASE / LIPASE / PHOSPHORUS / POTASSIUM / SODIUM / TOTAL BILIRUBIN / TOTAL PROTEIN / URIC ACID: tissue Plasma
[1] = 12 mg/kg, 120 h, dose level Low, time 5 day
[2] = 380 mg/kg, 72 h, dose level High, time 3 day
[3] = 380 mg/kg, 120 h, dose level High, time 5 day

COc1ncnc(NS(=O)(=O)c2ccc(N)cc2)c1OC [SULFADOXINE]
ABSOLUTE BASOPHIL [1]: 0 CELLS/uL | ABSOLUTE EOSINOPHIL [1]: 0 CELLS/uL | ABSOLUTE LYMPHOCYTE [1]: 10205.33 CELLS/uL | ABSOLUTE MONOCYTE [1]: 178 CELLS/uL | ABSOLUTE SEGMENTED NEUTROPHIL [1]: 483.33 CELLS/uL | BASOPHIL [1]: 0% | EOSINOPHIL [1]: 0% | ERYTHROCYTE COUNT [1]: 5.46 x10E6/uL | HEMATOCRIT [1]: 34.5% | HEMOGLOBIN [1]: 13.53 G/DL | LEUKOCYTE COUNT [1]: 10.87 x10E3/uL | LYMPHOCYTE [1]: 94% | MEAN CORPUSCULAR HEMOGLOBIN [1]: 24.8 pg | MEAN CORPUSCULAR HEMOGLOBIN CONCENTRATION [1]: 39.27 G/DL | MEAN CORPUSCULAR VOLUME [1]: 63.17 fL | MONOCYTE [1]: 1.67% | NEUTROPHIL [1]: 4.33% | NUCLEATED RED BLOOD CELLS [1]: 0 /100WBC | PLATELET COUNT [1]: 1312.33 x10E3/uL | ALANINE AMINOTRANSFERASE [1]: 52 u/L | ALBUMIN [1]: 4.1 G/DL | ALKALINE PHOSPHATASE [1]: 476 u/L | ASPARTATE AMINOTRANSFERASE [1]: 74.33 u/L | BLOOD UREA NITROGEN [1]: 11.67 mg/dL | CARBON DIOXIDE [1]: 31.67 mmol/L | CHLORIDE [1]: 101.67 MEQ/L | CHOLESTEROL [1]: 65.33 mg/dL | CREATINE PHOSPHOKINASE [1]: 233 u/L | CREATININE [1]: 0.14 mg/dL | GLUCOSE [1]: 140.33 mg/dL | LACTATE DEHYDROGENASE [1]: 125.67 u/L | LIPASE [1]: 11.33 u/L | PHOSPHORUS [1]: 10.5 mg/dL | POTASSIUM [1]: 5.98 MEQ/L | SODIUM [1]: 148.87 MEQ/L | TOTAL BILIRUBIN [1]: 0.27 mg/dL | TOTAL PROTEIN [1]: 5.87 G/DL | URIC ACID [1]: 0.53 mg/dL | ABSOLUTE BASOPHIL [2]: 0 CELLS/uL | ABSOLUTE EOSINOPHIL [2]: 29.33 CELLS/uL | ABSOLUTE LYMPHOCYTE [2]: 8090 CELLS/uL | ABSOLUTE MONOCYTE [2]: 197 CELLS/uL | ABSOLUTE SEGMENTED NEUTROPHIL [2]: 650.33 CELLS/uL | BASOPHIL [2]: 0% | EOSINOPHIL [2]: 0.33% | ERYTHROCYTE COUNT [2]: 5.01 x10E6/uL | HEMATOCRIT [2]: 31.2% | HEMOGLOBIN [2]: 12.27 G/DL | LEUKOCYTE COUNT [2]: 8.97 x10E3/uL | LYMPHOCYTE [2]: 90% | MEAN CORPUSCULAR HEMOGLOBIN [2]: 24.6 pg | MEAN CORPUSCULAR HEMOGLOBIN CONCENTRATION [2]: 39.4 G/DL | MEAN CORPUSCULAR VOLUME [2]: 62.43 fL | MONOCYTE [2]: 2.33% | NEUTROPHIL [2]: 7.33% | NUCLEATED RED BLOOD CELLS [2]: 0 /100WBC | PLATELET COUNT [2]: 1128.67 x10E3/uL | ALANINE AMINOTRANSFERASE [2]: 92.33 u/L | ALBUMIN [2]: 3.93 G/DL | ALKALINE PHOSPHATASE [2]: 373.33 u/L | ASPARTATE AMINOTRANSFERASE [2]: 93.67 u/L | BLOOD UREA NITROGEN [2]: 13 mg/dL | CARBON DIOXIDE [2]: 32.33 mmol/L | CHLORIDE [2]: 99.67 MEQ/L | CHOLESTEROL [2]: 78 mg/dL | CREATINE PHOSPHOKINASE [2]: 280 u/L | CREATININE [2]: 0.14 mg/dL | GLUCOSE [2]: 143 mg/dL | LACTATE DEHYDROGENASE [2]: 116.67 u/L | LIPASE [2]: 11.67 u/L | PHOSPHORUS [2]: 9.13 mg/dL | POTASSIUM [2]: 5.99 MEQ/L | SODIUM [2]: 144.13 MEQ/L | TOTAL BILIRUBIN [2]: 0.2 mg/dL | TOTAL PROTEIN [2]: 5.5 G/DL | URIC ACID [2]: 0.37 mg/dL | ABSOLUTE BASOPHIL [3]: 0 CELLS/uL | ABSOLUTE EOSINOPHIL [3]: 0 CELLS/uL | ABSOLUTE LYMPHOCYTE [3]: 5345.67 CELLS/uL | ABSOLUTE MONOCYTE [3]: 97.67 CELLS/uL | ABSOLUTE SEGMENTED NEUTROPHIL [3]: 423.33 CELLS/uL | BASOPHIL [3]: 0% | EOSINOPHIL [3]: 0% | ERYTHROCYTE COUNT [3]: 5.09 x10E6/uL | HEMATOCRIT [3]: 32.47% | HEMOGLOBIN [3]: 12.83 G/DL | LEUKOCYTE COUNT [3]: 5.87 x10E3/uL | LYMPHOCYTE [3]: 91.33% | MEAN CORPUSCULAR HEMOGLOBIN [3]: 25.23 pg | MEAN CORPUSCULAR HEMOGLOBIN CONCENTRATION [3]: 39.53 G/DL | MEAN CORPUSCULAR VOLUME [3]: 63.77 fL | MONOCYTE [3]: 1.67% | NEUTROPHIL [3]: 7% | NUCLEATED RED BLOOD CELLS [3]: 0 /100WBC | PLATELET COUNT [3]: 1282.67 x10E3/uL | ALANINE AMINOTRANSFERASE [3]: 65.67 u/L | ALBUMIN [3]: 3.97 G/DL | ALKALINE PHOSPHATASE [3]: 341.33 u/L | ASPARTATE AMINOTRANSFERASE [3]: 76 u/L | BLOOD UREA NITROGEN [3]: 15 mg/dL | CARBON DIOXIDE [3]: 31.33 mmol/L | CHLORIDE [3]: 99.33 MEQ/L | CHOLESTEROL [3]: 75 mg/dL | CREATINE PHOSPHOKINASE [3]: 205.67 u/L | CREATININE [3]: 0.2 mg/dL | GLUCOSE [3]: 145 mg/dL | LACTATE DEHYDROGENASE [3]: 115.67 u/L | LIPASE [3]: 10.33 u/L | PHOSPHORUS [3]: 10.13 mg/dL | POTASSIUM [3]: 5.99 MEQ/L | SODIUM [3]: 144.77 MEQ/L | TOTAL BILIRUBIN [3]: 0.17 mg/dL | TOTAL PROTEIN [3]: 5.97 G/DL | URIC ACID [3]: 0.6 mg/dL
